Source: patent publication US5607929A, “Antiviral dibenzothiazepinone derivatives” (Glaxo Wellcome Inc., priority 1991, dated 1997)

Test system: HIV
Test: HIV (MT4 assay), in vitro antiviral activity
Assay type: cell-based
Details: not given

Compound | IC50 [nM]
4-fluorodibenzothiazepin-11(10H)-one-5,5-dioxide [15(iv)] | 1800

Same assay, conditions: Human immunodeficiency virus 1

Compound | IC50 [nM]
O=C1Nc2ccccc2Sc2c(F)cccc21 [14(iv), 4-Fluoro-10,11-dihydrobenzo[b,f][1,4]thiazepin-11-one] | 1100
CN1C(=O)c2cccc(F)c2Sc2ccccc21 [17(i), 4-Fluoro-10-methyl-10,11-dihydrobenzo[b,f][1,4] thiazepin-11-one] | 700
O=C1Nc2ccccc2S(=O)(=O)c2ccccc21 [Example 5, 10,11-Dihydrodibenzo[b,f][1,4]thiazepin-11-one-5,5-dioxide] | 13000
O=C1Nc2ccccc2Sc2c1cccc2C(F)(F)F [Example 7, 4-Trifluoromethyl-10,11-dihydrodibenzo[b,f][1,4]thiazepin-11-one] | 2500
CN1C(=O)c2cccc(C(F)(F)F)c2Sc2ccccc21 [Example 10, 10-Methyl-4-trifluoromethyl-10,11-dihydrodibenzo[b,f][1,4]thiazepin-11-one] | 2800
CSc1cccc2c1Sc1ccccc1NC2=O [Example 19, 4-Thiomethyl-10,11-dihydrodibenzo[b,f][1,4]thiazepin-11-one] | 2300
COc1ccc2c(c1)S(=O)(=O)c1ccccc1C(=O)N2 [Example 22, 7-Methoxy-10,11-dihydrodibenzo[b,f][1,4]thiazepin-11-one-5,5-dioxide] | 12800
